Structures can show the parent of a compound that is named as a salt.
Target: notum carboxyesterase enzyme (Homo sapiens (Human), UniProt Q6P988)
Test: Biochemical Notum Enzymatic Activity Assay (OPTS substrate, fluorescence)
Conditions: 2 μM OPTS solution, 2.38 nM notum enzyme solution, 1 hour incubation at room temperature, fluorescence ex 485 nm / em 520 nm; n≥2
Text: Plate layout and measured fluorescence values were input into Dotmatics Studies data management tool.

Chain of notum carboxyesterase enzyme (Q6P988 20-496): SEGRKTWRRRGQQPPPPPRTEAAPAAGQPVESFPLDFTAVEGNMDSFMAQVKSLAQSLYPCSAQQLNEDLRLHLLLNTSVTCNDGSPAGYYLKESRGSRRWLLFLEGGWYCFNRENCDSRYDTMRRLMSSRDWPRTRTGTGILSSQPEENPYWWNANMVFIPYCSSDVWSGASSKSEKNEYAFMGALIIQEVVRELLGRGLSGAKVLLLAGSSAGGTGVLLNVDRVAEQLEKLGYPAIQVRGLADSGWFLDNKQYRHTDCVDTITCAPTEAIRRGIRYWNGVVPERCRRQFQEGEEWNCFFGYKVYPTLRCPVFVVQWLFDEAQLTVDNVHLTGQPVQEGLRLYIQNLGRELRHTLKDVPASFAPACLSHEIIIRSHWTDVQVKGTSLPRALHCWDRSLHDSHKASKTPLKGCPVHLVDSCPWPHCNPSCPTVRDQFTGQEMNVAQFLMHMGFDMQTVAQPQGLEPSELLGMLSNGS

Row | SMILES | IC50 [µM]
1 | OCc1cc(-c2ccc(Cl)cc2)[nH]n1 [Compound 171, [5-(4-chlorophenyl)-1H-pyrazol-3-yl]methanol] | > 10
2 | OCc1cn(-c2ccc3c(c2)OCCO3)nn1 [Compound 6, (1-(2,3-dihydrobenzo[b][1,4]dioxin-6-yl)-1H-1,2,3-triazol-4-yl)methanol] | 44.6
3 | CCOc1nnc(-c2ccc(Cl)c(C(F)(F)F)c2Cl)o1 [Compound 242, 2-(2,4-dichloro-3-(trifluoromethyl)phenyl)-5-ethoxy-1,3,4-oxadiazole] | 0.0043
4 | FC(F)(F)c1cc(-n2ccnn2)ccc1N1CCCC1 [Compound 286, 1-(4-(pyrrolidin-1-yl)-3-(trifluoromethyl)phenyl)-1H-1,2,3-triazole] | 0.862
5 | Cc1ccc(-c2csnn2)cc1 [Compound 145, 4-(p-tolyl)-1,2,3-thiadiazole] | 3.47
6 | Cc1nnc(-c2ccc(Cl)c(C(F)(F)F)c2Cl)o1 [Compound 299, 2-(2,4-dichloro-3-(trifluoromethyl)phenyl)-5-methyl-1,3,4-oxadiazole] | 0.027
7 | Nc1nnc(-c2ccc(Cl)cc2)o1 [Compound 156, 2-amino-5-(4-chlorophenyl)-1,3,4-oxadiazole] | 11.9
8 | OCc1cn(-c2cc(Cl)cc(Cl)c2)nn1 [Compound 27, (1-(3,5-dichlorophenyl)-1H-1,2,3-triazol-4-yl)methanol] | 3.03
9 | OCc1cn(-c2ccc(C(F)(F)F)c(Cl)c2)nn1 [Compound 13, (1-(3-chloro-4-(trifluoromethyl)phenyl)-1H-1,2,3-triazol-4-yl)methanol] | 1.72
10 | Nc1nc(-c2ccccc2)no1 [Compound 141, 3-phenyl-1,2,4-oxadiazol-5-amine] | 70.6
11 | CN1CC(C)(C)c2cc(-c3nnc(O)o3)ccc21 [Compound 180, 5-(1,3,3-trimethylindolin-5-yl)-1,3,4-oxadiazol-2-ol] | 0.0344
12 | Fc1cc(F)cc(-c2cc[nH]n2)c1 [Compound 56, 3-(3,5-difluorophenyl)-1H-pyrazole] | 23
13 | Clc1cccc(-c2cc[nH]n2)c1 [Compound 54, 3-(3-chlorophenyl)-1H-pyrazole] | 17.7
14 | CN(C)c1nnc(-c2ccc(Cl)c(C(F)(F)F)c2Cl)o1 [Compound 247, 5-(2,4-dichloro-3-(trifluoromethyl)phenyl)-N,N-dimethyl-1,3,4-oxadiazol-2-amine] | 0.439
15 | CNc1nnc(-c2ccc(Cl)c(C(F)(F)F)c2Cl)o1 [Compound 249, 5-(2,4-dichloro-3-(trifluoromethyl)phenyl)-N-methyl-1,3,4-oxadiazol-2-amine] | 0.0319
16 | FC(F)(F)c1c(Cl)ccc(-c2c[nH]nn2)c1Cl [Compound 306, 4-[2,4-dichloro-3-(trifluoromethyl)phenyl]-1H-triazole] | 0.0029
17 | FC(F)(F)c1cc(-c2c[nH]nn2)ccc1Cl [Compound 50, 4-(4-chloro-3-(trifluoromethyl)phenyl)-1H-1,2,3-triazole] | 0.0194
18 | N#CNc1nnc(-c2ccc(Cl)c(C(F)(F)F)c2Cl)o1 [Compound 246, N-(5-(2,4-dichloro-3-(trifluoromethyl)phenyl)-1,3,4-oxadiazol-2-yl)cyanamide, ammonia salt] | 0.0073
19 | OCc1cn(-c2ccc(Cl)c(OC(F)(F)F)c2)nn1 [Compound 270, (1-(4-chloro-3-(trifluoromethoxy)phenyl)-1H-1,2,3-triazol-4-yl)methanol] | 0.697

Row | SMILES | IC50 [µM]
20 | FC(F)(F)c1cc(-n2ccnn2)cc(Cl)c1Cl [Compound 309, 1-[3,4-dichloro-5-(trifluoromethyl)phenyl]triazole] | 0.107
21 | Clc1ccc(-c2cc[nH]n2)cc1Cl [Compound 55, 3-(3,4-dichlorophenyl)-1H-pyrazole] | 5.1
22 | OCc1cn(-c2ccc(C(F)(F)F)cc2)nn1 [Compound 271, (1-(4-(trifluoromethyl)phenyl)-1H-1,2,3-triazol-4-yl)methanol] | 8.7
23 | NCc1cn(-c2cccc(C(F)(F)F)c2)nn1 [Compound 38, (1-(3-(trifluoromethyl)phenyl)-1H-1,2,3-triazol-4-yl)methanamine hydrochloride] | 37.5
24 | Oc1c(F)cc(F)cc1-c1cc[nH]n1 [Compound 52, 2,4-difluoro-6-(1H-pyrazol-3-yl)phenol] | 3.27
25 | CC(O)c1cn(-c2ccc(Cl)c(C(F)(F)F)c2Cl)nn1 (stereo not shown) [Compound 310, 1-[1-[2,4-dichloro-3-(trifluoromethyl)phenyl]triazol-4-yl]ethanol] | 1.83
26 | NCc1cn(-c2ccccc2)nn1 [Compound 39, (1-phenyl-1H-1,2,3-triazol-4-yl)methanamine] | 4.87
27 | Cc1ccc(-c2nnc(O)o2)cc1OC(F)(F)F [Compound 79, 5-(4-methyl-3-(trifluoromethoxy)phenyl)-1,3,4-oxadiazol-2-ol] | 0.036
28 | Cc1cc(C)cc(-n2cnnn2)c1 [Compound 194, 1-(3,5-dimethylphenyl)tetrazole] | 3.22
29 | NCc1cc(-c2ccccc2)no1 [Compound 143, (3-phenylisoxazol-5-yl)methanamine] | 11.6
30 | FC(F)(F)c1ccc(-c2c[nH]nn2)cc1C(F)(F)F [Compound 49, 4-(3,4-bis(trifluoromethyl)phenyl)-1H-1,2,3-triazole] | 0.008
31 | Clc1ccc(-n2ccnc2)cc1 [Compound 149, 1-(4-chlorophenyl)imidazole] | 5.16
32 | OCc1cn(-c2cccc(Cl)c2Cl)nn1 [Compound 7, (1-(2,3-dichlorophenyl)-1H-1,2,3-triazol-4-yl)methanol] | 6.77
33 | FC(F)(F)c1c(Cl)ccc(-n2cnnc2)c1Cl [Compound 300, 4-(2,4-dichloro-3-(trifluoromethyl)phenyl)-4H-1,2,4-triazole] | 1.31
34 | COCc1cn(-c2ccc(Cl)c(Cl)c2)nn1 [Compound 43, 1-(3,4-dichlorophenyl)-4-(methoxymethyl)-1H-1,2,3-triazole] | 5.04
35 | OCc1cn(-c2ccc(Cl)c(Cl)c2)cn1 [Compound 127, [1-(3,4-dichlorophenyl)imidazol-4-yl]methanol] | 5.95
36 | OCc1nnc(-c2ccc(Cl)c(Cl)c2)o1 [Compound 126, [5-(3,4-dichlorophenyl)-1,3,4-oxadiazol-2-yl]methanol] | 0.726
37 | OCc1cn(-c2ccc(Cl)c(OCC3CC3)c2)nn1 [Compound 18, (1-(4-chloro-3-(cyclopropylmethoxy)phenyl)-1H-1,2,3-triazol-4-yl)methanol] | > 10

Second part, the molecule after the results:

Row | IC50 [µM] | SMILES
38 | 0.426 | FC(F)(F)c1ccc(-c2nnc(S)o2)cc1C1CC1 [Compound 187, 5-[3-cyclopropyl-4-(trifluoromethyl)phenyl]-1,3,4-oxadiazole-2-thiol]
39 | 34.2 | COc1ccc(-c2cc[nH]n2)c(O)c1 [Compound 57, 5-methoxy-2-(1H-pyrazol-3-yl)phenol]
40 | > 23.1 | Oc1nnc(-c2cccc(C(F)(F)F)n2)o1 [Compound 206, 5-[6-(trifluoromethyl)-2-pyridyl]-1,3,4-oxadiazol-2-ol]
41 | 7.2 | OCc1cn(-c2ccc(Cl)cc2Cl)nn1 [Compound 8, (1-(2,4-dichlorophenyl)-1H-1,2,3-triazol-4-yl)methanol]
42 | 0.0058 | COc1nnc(-c2ccc(Cl)c(C(F)(F)F)c2Cl)o1 [Compound 243, 2-(2,4-dichloro-3-(trifluoromethyl)phenyl)-5-methoxy-1,3,4-oxadiazole]
43 | 70.2 | NCc1cc(-c2ccc(Cl)cc2)no1 [Compound 167, (3-(4-chlorophenyl)isoxazol-5-yl)methanamine]
44 | 37.3 | OCc1cn(-c2ccc3c(c2)OCO3)nn1 [Compound 4, (1-(benzo[d][1,3]dioxol-5-yl)-1H-1,2,3-triazol-4-yl)methanol]
45 | 36.8 | OCc1cn(-c2cccc3ccccc23)nn1 [Compound 25, (1-(naphthalen-1-yl)-1H-1,2,3-triazol-4-yl)methanol]
46 | > 10 | CC(O)c1cn(-c2ccc(Cl)c(Cl)c2)nn1 (stereo not shown) [Compound 40, 1-(1-(3,4-dichlorophenyl)-1H-1,2,3-triazol-4-yl)ethan-1-ol]
47 | 44.6 | NCc1cn(-c2cc(Cl)cc(Cl)c2)nn1 [Compound 36, (1-(3,5-dichlorophenyl)-1H-1,2,3-triazol-4-yl)methanamine hydrochloride]
48 | 0.067 | Cn1nc(-c2ccc(Cl)c(C(F)(F)F)c2Cl)oc1=O [Compound 245, 5-(2,4-dichloro-3-(trifluoromethyl)phenyl)-3-methyl-1,3,4-oxadiazol-2(3H)-one]
49 | 24.7 | FC(F)(F)c1cc(-c2nnco2)cc(C2COC2)c1 [Compound 188, 2-[3-(oxetan-3-yl)-5-(trifluoromethyl)phenyl]-1,3,4-oxadiazole]
50 | 49.5 | OCc1ncn(-c2ccc(Cl)c(Cl)c2)n1 [Compound 47, (1-(3,4-dichlorophenyl)-1H-1,2,4-triazol-3-yl)methanol]
51 | 63.6 | OCc1cn(-c2ccccc2F)nn1 [Compound 273, (1-(2-Fluorophenyl)-1H-1,2,3-triazol-4-yl)methanol]
52 | 6.61 | COc1cc(-n2cc(CO)nn2)ccc1Cl [Compound 30, (1-(4-chloro-3-methoxyphenyl)-1H-1,2,3-triazol-4-yl)methanol]
53 | 0.248 | FC1CN(c2cc(-n3ccnn3)ccc2C(F)(F)F)C1 [Compound 288, 1-(3-(3-fluoroazetidin-1-yl)-4-(trifluoromethyl)phenyl)-1H-1,2,3-triazole]
54 | 1.28 | OCc1cn(-c2ccc3ccccc3c2)nn1 [Compound 3, (1-(naphthalen-2-yl)-1H-1,2,3-triazol-4-yl)methanol]
55 | 16.7 | Fc1ccc(-c2cc[nH]n2)cc1F [Compound 53, 3-(3,4-difluorophenyl)-1H-pyrazole]
56 | 1.17 | Cc1nnnn1-c1ccc(Cl)c(C(F)(F)F)c1 [Compound 182, 1-[4-chloro-3-(trifluoromethyl)phenyl]-5-methyl-tetrazole]
57 | 0.596 | Clc1ccc(-c2n[nH]c(-c3ccccn3)n2)cc1Cl [Compound 130, 2-(3-(3,4-dichlorophenyl)-1H-1,2,4-triazol-5-yl)pyridine]
58 | 19.4 | c1ccc(-n2cnnn2)cc1 [Compound 134, 1-phenyl-1H-tetrazole]

— US11634391B2, “Compounds which are inhibitors of Notum” (UCL BUSINESS LTD, priority 2018, dated 2023)
